ChEMBL document CHEMBL1137918, “Synthesis and antiproliferative activity of 2-aryl-4-oxo-thiazolidin-3-yl-amides for prostate cancer” (Bioorg Med Chem Lett, 2004)

How the values were obtained:
Format in all cases: functional, cell-based
PC-3 = assay: Antiproliferative activity was evaluated against human prostate PC-3 cancer cell lines using the sulforhodamine B ([…]) assay
[1] = Antiproliferative activity was evaluated against human prostate TSU cancer cell lines using the sulforhodamine B ([…]) assay
[2] = Antiproliferative activity was evaluated against human prostate PPC-1 cancer cell lines using the sulforhodamine B ([…]) assay
LNCaP = assay: Antiproliferative activity was evaluated against human prostate LNCaP cancer cell lines using the sulforhodamine B ([…]) assay
DU-145 = assay: Antiproliferative activity was evaluated against human prostate DU-145 cancer cell lines using the sulforhodamine B ([…]) assay

| SMILES | IC50 (PC-3) [µM] | IC50 [1] [µM] | IC50 [2] [µM] | IC50 (LNCaP) [µM] | IC50 (DU-145) [µM] |
| --- | --- | --- | --- | --- | --- |
| COc1ccc(CCNC(=O)CN2C(=O)CSC2c2ccccc2)cc1OC (centres undefined) | > 100 | > 100 | > 100 | > 100 |  |
| CCCCCCCCCCCCCCCCCCNCCN1CCSC1c1ccccc1 (centres undefined) | > 20 | 6.1 | 12 | > 20 | 15.8 |
